Structures can show the parent of a compound that is named as a salt. Where two headings read alike, the source gives them in different places.
How the values were obtained:
Test in all cases: AK assay 384-well format, Prestwick library screening
E. cloacae = format: cell-based, Enterobacter cloacae; details: Enterobacter cloacae, 3 h
P. aeruginosa = format: cell-based, Pseudomonas aeruginosa; details: Pseudomonas aeruginosa, 3 h
E. faecium = format: cell-based, Enterococcus faecium; details: Enterococcus faecium, 3 h
E. coli = format: cell-based, Escherichia coli; details: Escherichia coli, 3 h
[1] = system: S. aureus strain USA300-0114; format: cell-based, Staphylococcus aureus; details: Staphylococcus aureus, USA300, 3 h
[2] = system: A. baumannii strain 98-37-09; format: cell-based, Acinetobacter baumannii; details: Acinetobacter baumannii, 983709, 3 h
K. pneumoniae = format: cell-based, Klebsiella pneumoniae; details: Klebsiella pneumoniae, 3 h
[3] = 50 μM final drug concentration, 384-well format, cutoff for positive-scoring molecules 3-fold increase, read-out: AK-based Prestwick Library Screening Results, E. cloacae (increase in extracellular AK activity)
[4] = 50 μM final drug concentration, 384-well format, cutoff for positive-scoring molecules 3-fold increase, read-out: AK-based Prestwick Library Screening Results, P. aeruginosa (increase in extracellular AK activity)
[5] = 50 μM final drug concentration, 384-well format, cutoff for positive-scoring molecules 3-fold increase, read-out: AK-based Prestwick Library Screening Results, E. faecium (increase in extracellular AK activity)
[6] = 50 μM final drug concentration, 384-well format, cutoff for positive-scoring molecules 3-fold increase, read-out: AK-based Prestwick Library Screening Results, E. coli (increase in extracellular AK activity)
[7] = 50 μM final drug concentration, 384-well format, cutoff for positive-scoring molecules 3-fold increase, read-out: AK-based Prestwick Library Screening Results, S. aureus (increase in extracellular AK activity)
[8] = 50 μM final drug concentration, 384-well format, cutoff for positive-scoring molecules 3-fold increase, read-out: AK-based Prestwick Library Screening Results, A. baumannii (increase in extracellular AK activity)
[9] = 50 μM final drug concentration, 384-well format, cutoff for positive-scoring molecules 3-fold increase, read-out: AK-based Prestwick Library Screening Results, K. pneumoniae (increase in extracellular AK activity)

`CN1C(=O)CCS(=O)(=O)C1c1ccc(Cl)cc1` (centres unmarked) [Chlormezanone] showed a fold induction at 50 µM (E. cloacae; planktonic E. cloacae, 50 μM final drug concentration, […], read-out: AK-based Prestwick Library Screening Results, E. cloacae (increase in extracellular AK activity)) of 0.7, a fold induction at 50 µM (P. aeruginosa; planktonic P. aeruginosa, 50 μM final drug concentration, […], read-out: AK-based Prestwick Library Screening Results, P. aeruginosa (increase in extracellular AK activity)) of 0.6 and a fold induction at 50 µM (E. faecium; planktonic E. faecium, 50 μM final drug concentration, […], read-out: AK-based Prestwick Library Screening Results, E. faecium (increase in extracellular AK activity)) of 1. It also gave a fold induction at 50 µM (E. coli; planktonic E. coli, 50 μM final drug concentration, […], read-out: AK-based Prestwick Library Screening Results, E. coli (increase in extracellular AK activity)) of 0.7, a fold induction at 50 µM ([1]; planktonic S. aureus, 50 μM final drug concentration, […], read-out: AK-based Prestwick Library Screening Results, S. aureus (increase in extracellular AK activity)) of 0.7 and a fold induction at 50 µM ([2]; planktonic A. baumannii, 50 μM final drug concentration, […], read-out: AK-based Prestwick Library Screening Results, A. baumannii (increase in extracellular AK activity)) of 0.7. For the same molecule, the fold induction at 50 µM (K. pneumoniae; planktonic K. pneumoniae, 50 μM final drug concentration, […], read-out: AK-based Prestwick Library Screening Results, K. pneumoniae (increase in extracellular AK activity)) was 0.6.

Work on `CC(=C(CCO)SSCC1CCCO1)N(C=O)Cc1cnc(C)nc1N` (stereo in doubt) [Fursultiamine Hydrochloride] yielded a fold induction at 50 µM (E. cloacae; read-out: AK-based Prestwick library screening result, E. cloacae (fold increase in extracellular AK activity)) of 1.2, a fold induction at 50 µM (P. aeruginosa; read-out: AK-based Prestwick library screening result, P. aeruginosa (fold increase in extracellular AK activity)) of 1.1 and a fold induction at 50 µM (E. faecium; read-out: AK-based Prestwick library screening result, E. faecium (fold increase in extracellular AK activity)) of 1.1. The fold induction at 50 µM (E. coli; read-out: AK-based Prestwick library screening result, E. coli (fold increase in extracellular AK activity)) was 1.4, the fold induction at 50 µM ([1]; read-out: AK-based Prestwick library screening result, S. aureus (fold increase in extracellular AK activity)) was 1 and the fold induction at 50 µM ([2]; read-out: AK-based Prestwick library screening result, A. baumannii (fold increase in extracellular AK activity)) was 1.3. It also gave a fold induction at 50 µM (K. pneumoniae; read-out: AK-based Prestwick library screening result, K. pneumoniae (fold increase in extracellular AK activity)) of 1.

Molecule `C[C@H](CCC(=O)O)[C@H]1CC[C@H]2[C@@H]3C(=O)C[C@@H]4CC(=O)CC[C@]4(C)[C@H]3CC(=O)[C@]12C` [Dehydrocholic acid] has a fold induction at 50 µM (E. cloacae; [3]) of 1.4, a fold induction at 50 µM (P. aeruginosa; [4]) of 1 and a fold induction at 50 µM (E. faecium; [5]) of 1. It also gave a fold induction at 50 µM (E. coli; [6]) of 1.3, a fold induction at 50 µM [1, 7] of 1 and a fold induction at 50 µM [2, 8] of 1. The fold induction at 50 µM (K. pneumoniae; [9]) was 0.8.

With `CC(C)n1c(/C=C/C(O)CC(O)CC(=O)O)c(-c2ccc(F)cc2)c2ccccc21` (centres unmarked) [Fluvastatin sodium salt] the fold induction at 50 µM (E. cloacae; 50 μM final drug concentration, cutoff for positive-scoring molecules 3-fold increase, read-out: AK-based Prestwick Library Screening Results, E. cloacae (fold increase in extracellular AK activity)) was 1.7, the fold induction at 50 µM (P. aeruginosa; 50 μM final drug concentration, cutoff for positive-scoring molecules 3-fold increase, read-out: AK-based Prestwick Library Screening Results, P. aeruginosa (fold increase in extracellular AK activity)) was 1 and the fold induction at 50 µM (E. faecium; 50 μM final drug concentration, cutoff for positive-scoring molecules 3-fold increase, read-out: AK-based Prestwick Library Screening Results, E. faecium (fold increase in extracellular AK activity)) was 1. The fold induction at 50 µM (E. coli; 50 μM final drug concentration, cutoff for positive-scoring molecules 3-fold increase, read-out: AK-based Prestwick Library Screening Results, E. coli (fold increase in extracellular AK activity)) was 1.3, the fold induction at 50 µM ([1]; 50 μM final drug concentration, cutoff for positive-scoring molecules 3-fold increase, read-out: AK-based Prestwick Library Screening Results, S. aureus (fold increase in extracellular AK activity)) was 1 and the fold induction at 50 µM ([2]; 50 μM final drug concentration, cutoff for positive-scoring molecules 3-fold increase, read-out: AK-based Prestwick Library Screening Results, A. baumannii (fold increase in extracellular AK activity)) was 0.9. The fold induction at 50 µM (K. pneumoniae; 50 μM final drug concentration, cutoff for positive-scoring molecules 3-fold increase, read-out: AK-based Prestwick Library Screening Results, K. pneumoniae (fold increase in extracellular AK activity)) was 0.9.

Work on `CCc1nc(N)nc(N)c1-c1ccc(Cl)cc1` [Pyrimethamine] yielded a fold induction at 50 µM (E. cloacae; [3]) of 1.3, a fold induction at 50 µM (P. aeruginosa; [4]) of 0.9 and a fold induction at 50 µM (E. faecium; [5]) of 1. It also gave a fold induction at 50 µM (E. coli; [6]) of 1.4, a fold induction at 50 µM [1, 7] of 0.7 and a fold induction at 50 µM [2, 8] of 2.5. It also gave a fold induction at 50 µM (K. pneumoniae; [9]) of 0.7.

`C[C@]12C[C@H]3S[C@H]3C[C@@H]1CC[C@@H]1[C@@H]2CC[C@]2(C)[C@@H](O)CC[C@@H]12` [Epitiostanol] gave a fold induction at 50 µM (E. cloacae; planktonic E. cloacae, 50 μM final drug concentration, […], read-out: AK-based Prestwick library screening result, E. cloacae (fold increase in extracellular AK activity)) of 1.3, a fold induction at 50 µM (P. aeruginosa; planktonic P. aeruginosa, 50 μM final drug concentration, […], read-out: AK-based Prestwick library screening result, P. aeruginosa (fold increase in extracellular AK activity)) of 1.1 and a fold induction at 50 µM (E. faecium; planktonic E. faecium, 50 μM final drug concentration, […], read-out: AK-based Prestwick library screening result, E. faecium (fold increase in extracellular AK activity)) of 1. The fold induction at 50 µM (E. coli; planktonic E. coli, 50 μM final drug concentration, […], read-out: AK-based Prestwick library screening result, E. coli (fold increase in extracellular AK activity)) was 1.2, the fold induction at 50 µM ([1]; planktonic S. aureus, 50 μM final drug concentration, […], read-out: AK-based Prestwick library screening result, S. aureus (fold increase in extracellular AK activity)) was 0.9 and the fold induction at 50 µM ([2]; planktonic A. baumannii, 50 μM final drug concentration, […], read-out: AK-based Prestwick library screening result, A. baumannii (fold increase in extracellular AK activity)) was 1.1. The fold induction at 50 µM (K. pneumoniae; planktonic K. pneumoniae, 50 μM final drug concentration, […], read-out: AK-based Prestwick library screening result, K. pneumoniae (fold increase in extracellular AK activity)) was 0.9.

For `COc1ccc(C[C@H](N)C(=O)N[C@H]2[C@@H](O)[C@H](n3cnc4c(N(C)C)ncnc43)O[C@@H]2CO)cc1` [Puromycin dihydrochloride], the fold induction at 50 µM (E. cloacae; 50 μM final drug concentration, planktonic, cutoff for positive 3-fold increase, read-out: AK-based Prestwick Library Screening Results, E. cloacae (fold increase in extracellular AK activity)) was 1.4, the fold induction at 50 µM (P. aeruginosa; 50 μM final drug concentration, planktonic, cutoff for positive 3-fold increase, read-out: AK-based Prestwick Library Screening Results, P. aeruginosa (fold increase in extracellular AK activity)) was 1 and the fold induction at 50 µM (E. faecium; 50 μM final drug concentration, planktonic, cutoff for positive 3-fold increase, read-out: AK-based Prestwick Library Screening Results, E. faecium (fold increase in extracellular AK activity)) was 1.1. For the same molecule, the fold induction at 50 µM (E. coli; 50 μM final drug concentration, planktonic, cutoff for positive 3-fold increase, read-out: AK-based Prestwick Library Screening Results, E. coli (fold increase in extracellular AK activity)) was 1.1, the fold induction at 50 µM ([1]; 50 μM final drug concentration, planktonic, cutoff for positive 3-fold increase, read-out: AK-based Prestwick Library Screening Results, S. aureus (fold increase in extracellular AK activity)) was 1.1 and the fold induction at 50 µM ([2]; 50 μM final drug concentration, planktonic, cutoff for positive 3-fold increase, read-out: AK-based Prestwick Library Screening Results, A. baumannii (fold increase in extracellular AK activity)) was 1.6. It also gave a fold induction at 50 µM (K. pneumoniae; 50 μM final drug concentration, planktonic, cutoff for positive 3-fold increase, read-out: AK-based Prestwick Library Screening Results, K. pneumoniae (fold increase in extracellular AK activity)) of 1.1.

In the case of `Cc1scc2c1N(C(=O)CN1CCN(C)CC1)c1ccccc1NC2=O` [Telenzepine dihydrochloride], the fold induction at 50 µM (E. cloacae; planktonic E. cloacae, 50 μM final drug concentration, 384-well, cutoff for positive-scoring molecules 3-fold increase, read-out: AK-based Prestwick Library Screening Results: E. cloacae (increase in extracellular AK activity)) is reported as 1.4, the fold induction at 50 µM (P. aeruginosa; planktonic P. aeruginosa, 50 μM final drug concentration, 384-well, cutoff for positive-scoring molecules 3-fold increase, read-out: AK-based Prestwick Library Screening Results: P. aeruginosa (increase in extracellular AK activity)) is reported as 1.2 and the fold induction at 50 µM (E. faecium; planktonic E. faecium, 50 μM final drug concentration, 384-well, cutoff for positive-scoring molecules 3-fold increase, read-out: AK-based Prestwick Library Screening Results: E. faecium (increase in extracellular AK activity)) is reported as 1.1. It also gave a fold induction at 50 µM (E. coli; planktonic E. coli, 50 μM final drug concentration, 384-well, cutoff for positive-scoring molecules 3-fold increase, read-out: AK-based Prestwick Library Screening Results: E. coli (increase in extracellular AK activity)) of 1.5, a fold induction at 50 µM ([1]; planktonic S. aureus, 50 μM final drug concentration, 384-well, cutoff for positive-scoring molecules 3-fold increase, read-out: AK-based Prestwick Library Screening Results: S. aureus (increase in extracellular AK activity)) of 1.3 and a fold induction at 50 µM ([2]; planktonic A. baumannii, 50 μM final drug concentration, 384-well, cutoff for positive-scoring molecules 3-fold increase, read-out: AK-based Prestwick Library Screening Results: A. baumannii (increase in extracellular AK activity)) of 1.6. The fold induction at 50 µM (K. pneumoniae; planktonic K. pneumoniae, 50 μM final drug concentration, 384-well, cutoff for positive-scoring molecules 3-fold increase, read-out: AK-based Prestwick Library Screening Results: K. pneumoniae (increase in extracellular AK activity)) was 1.
